Settings: 101.33 kPa, Liquid; for viscosity: Capillary tube (Ostwald / Ubbelohde) method; for mass density: Pycnometric method

OCCO [1,2-ethanediol]
Settings | mass density [kg/m3] | viscosity [mPa·s]
313.15 K | 1098.9 | 9.309
323.15 K | 1091.7 | 6.818
333.15 K | 1084.2 | 5.027
343.15 K | 1078.1 | 3.915

Reference: the NIST ThermoML archive (doi:10.1021/je400491p)
